Results reported in patent US9120774B2 (University of Kansas, priority 2009, dated 2015).

Tests used:
[1] = tested on: MCF-7 (estrogen receptor positive breast cancer cells); assay: Anti-proliferation activity against MCF-7 cells (MTS/PMS); type: cell-based; settings: up to 100 μM
Summary of the method: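 Cells seeded at 2000/well, attached overnight, then exposed to compound at varying concentrations (1% DMSO final) for 72 hours at 37° C. Viable cells read by MTS/PMS, normalised to 1% DMSO as 100% proliferation. IC50 from separate triplicate experiments.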

[2] = tested on: androgen receptor in LAPC-4 prostate cancer cells; assay: Western blot of androgen receptor in LAPC-4 cells; type: cell-based; settings: LAPC-4 cells (wild type androgen receptor), 24 hours
Protocol: FIG. 3 (top panel) is a western blot analysis of prostate cancer LNCaP cells treated with KU-1/A4. The bottom panel is a western blot analysis of prostate cancer LAPC-4 cells incubated with KU-1/A4. Actin was used as a control in both assays. […] Western blot analysis of the effects of KU-1/A4 on Hsp90 client proteins in prostate cancer LNCaP cells. Cells were treated with varying concentrations of KU-1/A4 for 24 hours and probed for the androgen receptor (“AR”), protein kinase […] (“AKT”), Hsp90, and actin.
The steroid hormone receptors are also dependent upon the Hsp90 protein folding machinery for activation and hormone binding. To determine whether KU-1/A4 had similar effects on the androgen receptor, KU-1/A4 was tested in both a mutated androgen receptor-dependent prostate cancer cell line (LNCaP) and a wild type androgen receptor prostate cancer cell line (LAPC-4). More specifically, the prostate cancer cells were grown in RPMI with 10% fetal calf serum in a standard fashion. Once the cells had reached near confluence, they were treated with vehicle (DMSO) or varying concentrations of KU-1/A4 ranging from 10 nm to 100 μM for 24 hours. Cells were harvested and cell lysates prepared. […] More specifically, Western Blot analysis protein concentrations in serum samples were determined by the Pierce BCA protein assay kit according to the manufacturer's protocol. […]

[3] = tested on: Hsp70 in primary cortical neurons; assay: Hsp70 up-regulation in neuronal cells (immunoblot); type: cell-based, rat
Protocol: Inhibition of Hsp90 induces overexpression of both Hsp90 and Hsp70 through dissociation of Hsp90-HSF-1 complexes and subsequent translocation of HSF-1 to the nucleus. […] Thus, in this example, an immunoblot analysis of neuronal cells was performed for Hsp70.
Primary cortical neurons were prepared as described herein. Cells were incubated (37° C. in 5% CO2) with the indicated concentrations of GA or KU-1/A4 for 24 or 48 hours. Cells were washed three times with phosphate buffered saline (PBS), followed by addition of a cell lysis buffer (50 mM Tris-HCL, 150 mM NaCl, 5 mM EDTA, 5 mM EGTA, 1% NP40, 10% Glycerol, 1 mM Na3VO4, 10 mM sodium molybdate, 40 mM NaF, and 10 ul/ml of Calbiochem protease inhibitor cocktail III). Cells were collected by scraping the dishes and aspirating all contents. […] The membranes were probed with the indicated primary HSP70 antibody (1:500, Upstate Biotechnology) and immunoreactive proteins detected using the Lumiglo Western Blot Protein Detector Kit (KPL). The immunoblots were scanned using a Kodak Image Station 2000R to determine the pixel density of the bands and imported into Photoshop and analyzed as described in Zaidi et al., Oxidative inactivation of purified plasma membrane Ca2+-ATPase by hydrogen peroxide and protection by calmodulin, Biochem. 42 12001-12010 (2003). All blots were re-probed with antibodies to β-actin I-19R (Santa Cruz) as a loading control and the data are presented as the ratio of Hsp70 to actin in each lane. Cells from at least three separate cultures for each treatment condition were examined, and the significance of differences in the immunoreactivities of the bands observed under the various treatment conditions was assessed by Student's t-test for unpaired samples.

Question: With `CO[C@@H]1[C@@H](O)[C@@H](O)[C@H](Oc2ccc3cc(NC(C)=O)c(=O)oc3c2)OC1(C)C` [KU-1/A4, N-(7-((2R,3R,4S,5R)-3,4-dihydroxy-5-methoxy-6,6-dimethyl-tetrahydro-2H-pyran-2-yloxy)-2-oxo-2H-chromen-3-yl)acetamide] as the compound, how does the “anti-proliferative effects MCF-7” value [1] read?
Answer: Its value is “no anti-proliferative effects”.

Question: What about the androgen receptor levels [2] of the same compound?
Answer: The androgen receptor levels was “drastically reduced levels of the androgen receptor at lower concentrations”.

Question: What about the “Hsp70 levels (ratio of Hsp70 to actin)” value ([3]; 0.2 μM, 48 hours) of the same compound?
Answer: The value was “significantly increased Hsp70 levels”.

Question: What about the “lowest concentration leading to increases in Hsp70 levels” value ([3]; 48 hours, compared to DMSO controls) of the same compound?
Answer: The value was 1 nM.

Question: What about the Hsp70 levels ([3]; higher concentrations (1 and 10 μM)) of the same compound?
Answer: The Hsp70 levels was “did not significantly increase Hsp70 levels”.
